pIC50: −log10 of the molar value.

This experiment deals with T1, HIV-integrase (Human immunodeficiency virus type 1 group M subtype B, UniProt P12497).
T1 construct: Recombinant integrase (0.26 ng) was incubated with the beads
Description: HIV-Integrase Inhibition Activity (SPA bead integration assay with P33 labeled target DNA). Type of experiment: biochemical. The following applies: recombinant integrase, class symbols; read-out: in vitro activity. In outline: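 Biotinylated substrate DNA on streptavidin SPA beads loaded with recombinant integrase (90 min, 37° C), washed, then inhibitor plus 0.1 fmol P33-labeled target DNA added. Reaction stopped with 10 mM EDTA; integration measured as CPM by scintillation, giving IC50 ranks.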
As to `O=C(NC12CCC(CC1)Cn1c2nc(C(=O)NCc2ccc(F)cc2)c(O)c1=O)c1ccncc1` [Example 35, N-(4-Fluorobenzyl)-3-hydroxy-4-oxo-10-((4-pyridinylcarbonyl)amino)-4,6,7,8,9,10-hexahydro-7,10-ethanopyrimido[1,2-a]azepine-2-carboxamide], the pIC50 was more than 8.00.
On to `O=C(NCc1ccc(F)cc1)c1nc2n(c(=O)c1O)CC1CCC2(NC(=O)C2CCCN2S(=O)(=O)c2ccco2)CC1` (centres unmarked) [Example 410], for which the pIC50 is more than 8.00.
Consider `CO[C@H]1C[C@@H](C(=O)NC23CCC(CC2)Cn2c3nc(C(=O)NCc3ccc(F)c(C)c3)c(O)c2=O)N(C(=O)c2cccn2C)C1` [Example 279, 7,10-Ethanopyrimido[1,2-a]azepine-2-carboxamide, N-[(4-fluoro-3-methylphenyl)methyl]-4,6,7,8,9,10-hexahydro-3-hydroxy-10-[[[(2S,4S)-4-methoxy-1-[(1-methyl-1H-pyrrol-2-yl)carbonyl]-2-pyrrolidinyl]carbonyl]amino]-4-oxo-], for which the pIC50 is more than 8.00.
Take `CS(=O)(=O)N1CCCC[C@H]1C(=O)NC12CCC(CC1)Cn1c2nc(C(=O)NCc2ccc(F)cc2)c(O)c1=O` [Example 266, 7,10-Ethanopyrimido[1,2-a]azepine-2-carboxamide, N-[(4-fluorophenyl)methyl]-4,6,7,8,9,10-hexahydro-3-hydroxy-10-[[[(2S)-1-(methylsulfonyl)-2-piperidinyl]carbonyl]amino]-4-oxo-]: the pIC50 was more than 8.00.
For `CC(C)CN(C)C(=O)C(=O)NC12CCC(CC1)Cn1c2nc(C(=O)NCc2ccc(F)cc2)c(O)c1=O` [Example 99, N′-(2-((4-Fluorobenzyl)carbamoyl)-3-hydroxy-4-oxo-6,7,8,9-tetrahydro-7,10-ethanopyrimido[1,2-a]azepin-10(4H)-yl)-N-methyl-N-(2-methylpropyl)ethanediamide] the value was more than 8.00.
For the compound `NC(=S)NC12CCC(CC1)Cn1c2nc(C(=O)NCc2ccc(F)cc2)c(O)c1=O` [Example 333, 7,10-Ethanopyrimido[1,2-a]azepine-2-carboxamide, 10-[(aminothioxomethyl)amino]-N-[(4-fluorophenyl)methyl]-4,6,7,8,9,10-hexahydro-3-hydroxy-4-oxo-], the pIC50 is more than 8.00.
For the compound `O=C(NC12CCC(CCn3c1nc(C(=O)NCc1ccc(F)c(Cl)c1)c(O)c3=O)C2)C(=O)N1CC[C@@H](F)C1` (stereo partly drawn) [Example 215, 8,11-Methano-4H-pyrimido[1,2-a]azocine-2-carboxamide, N-[(3-chloro-4-fluorophenyl)methyl]-11-[[2-[(3R)-3-fluoro-1-pyrrolidinyl]-1,2-dioxoethyl]amino]-6,7,8,9,10,11-hexahydro-3-hydroxy-4-oxo-], the pIC50 was more than 8.00.
With `CN(C)C(=O)C(=O)NC12CCC(CC1)Cn1c2nc(C(=O)NCc2csc(-c3ccccc3)n2)c(O)c1=O` [Example 359], the pIC50 is more than 8.00.
`CN(C)C(=O)C(=O)NC12CCC(CC1)Cn1c2nc(C(=O)NCc2ccccc2)c(O)c1=O` [Example 129, N′-(2-(Benzylcarbamoyl)-3-hydroxy-4-oxo-6,7,8,9-tetrahydro-7,10-ethanopyrimido[1,2-a]azepin-10(4H)-yl)-N,N-dimethylethanediamide]: the pIC50 was more than 8.00.
As to `CC1(C)[C@@H]2CC[C@@]1(C)[C@@H](N)c1nc(C(=O)NCc3ccc(F)cc3)c(O)c(=O)n1C2` [Example 182, (7S,10R,11R)-11-Amino-N-(4-fluorobenzyl)-3-hydroxy-10,12,12-trimethyl-4-oxo-6,7,8,9,10,11-hexahydro-4H-7,10-methanopyrimido[1,2-a]azocine-2-carboxamide], the pIC50 was less than 7.00.
With `CN(C)C(=O)C(=O)NC12CCC(CC1)Cn1c2nc(C(=O)NCc2ccncc2)c(O)c1=O` [Example 365], the pIC50 is less than 7.00.

The values above are taken from patent US8129398B2 (priority 2008, dated 2012).
